One assay addresses T1, PfeA wild-type (Pseudomonas aeruginosa, UniProt Q05098).
T1 construct: His7 tag with TEV protease site (N, cleaved yes); made in house; host or cells: E. coli C43 (DE3)
In words: isothermal titration calorimetry, PfeA wild-type. The class given is binding. To be noted: ITC reverse titration (PfeA into Fe^3+-enterobactin), estimate. As to the method: (§1) The sites have different affinities for the ligand, one with high affinity and highly favourable enthalpy and the second with lower affinity and unfavourable enthalpy. Although the biphasic nature of the isotherm was reproducible, the numerical values varied. For K1, the binding constant was 20 to 100 nM; for K2 […]. […] The weaker binding at the […] site is consistent with the higher B-factor of the Fe^3+-enterobactin molecule observed in the complex crystal structures.
(§2) Affinities of PfeA wild-type and mutants for Fe^3+-enterobactin were measured by isothermal titration calorimetry using a VP-ITC instrument (GE Healthcare) at 25 °C. Titrations were performed using 57 × 5 μl injections of Fe^3+-enterobactin (70–55 μM) into 10 μM protein. The heats of dilution measured from injection of the ligands into the buffer were subtracted, and titration curves were fitted using AFFINImeter software with a two-site binding model. Concentrations of Fe^3+-enterobactin solutions were verified with UV/vis spectrophotometry using a published molar extinction coefficient of ε495 = 5600 M^−1 cm^−1. […] Reverse titration has been also performed (PfeA into Fe^3+-enterobactin), but data suffer from high heats of dilution in the beginning of the blank titration of PfeA into the buffer giving estimates of K1 = 95 nM and K2 = 4.5 μM for the wild-type.

The next assay addresses T2, PfeA G324V mutant (Pseudomonas aeruginosa, UniProt Q05098, G349V).
T2 construct: His7 tag with TEV protease site (N, cleaved yes); made in house; host or cells: E. coli C43 (DE3)
Put plainly: isothermal titration calorimetry, PfeA G324V. The class given is binding. As to the method:
as §1, §2

Assay [1] addresses T3, PfeA R480A-Q482A double mutant (Pseudomonas aeruginosa, UniProt Q05098, Q507A/R505A).
T3 construct: His7 tag with TEV protease site (N, cleaved yes); made in house; host or cells: E. coli C43 (DE3)
In words: isothermal titration calorimetry, PfeA R480A-Q482A. The class given is binding. As to the method:
as §1, §2
A general note: In ITC the heat of successive injections is recorded.

A further assay addresses T4, PfeA Q482A mutant (Pseudomonas aeruginosa, UniProt Q05098, Q507A).
T4 construct: His7 tag with TEV protease site (N, cleaved yes); made in house; host or cells: E. coli C43 (DE3)
Put plainly: isothermal titration calorimetry, PfeA Q482A. The class given is binding. As to the method: as §1, §2

In another assay the target is T5, PfeA R480A mutant (Pseudomonas aeruginosa, UniProt Q05098, R505A).
T5 construct: His7 tag with TEV protease site (N, cleaved yes); made in house; host or cells: E. coli C43 (DE3)
T5 sequence (Q05098 26-746 R505A): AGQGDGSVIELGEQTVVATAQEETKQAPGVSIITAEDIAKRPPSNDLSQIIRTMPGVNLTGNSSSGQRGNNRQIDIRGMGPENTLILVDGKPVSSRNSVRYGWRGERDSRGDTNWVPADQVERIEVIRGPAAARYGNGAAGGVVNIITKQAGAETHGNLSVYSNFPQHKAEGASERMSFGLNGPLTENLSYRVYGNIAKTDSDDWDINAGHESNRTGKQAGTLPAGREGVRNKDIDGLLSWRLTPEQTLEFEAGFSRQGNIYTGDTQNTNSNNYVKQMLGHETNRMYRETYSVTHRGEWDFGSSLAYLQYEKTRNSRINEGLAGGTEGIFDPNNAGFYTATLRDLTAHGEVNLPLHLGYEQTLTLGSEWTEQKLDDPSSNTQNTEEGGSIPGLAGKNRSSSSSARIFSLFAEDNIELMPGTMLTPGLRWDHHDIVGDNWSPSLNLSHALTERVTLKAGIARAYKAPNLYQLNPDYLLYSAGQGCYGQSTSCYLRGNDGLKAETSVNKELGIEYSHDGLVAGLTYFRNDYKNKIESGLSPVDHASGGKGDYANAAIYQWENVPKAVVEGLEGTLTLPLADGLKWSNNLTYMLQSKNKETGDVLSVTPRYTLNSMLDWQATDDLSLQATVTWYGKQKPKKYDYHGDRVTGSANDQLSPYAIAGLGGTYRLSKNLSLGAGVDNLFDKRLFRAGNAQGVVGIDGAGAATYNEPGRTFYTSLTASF
Put plainly: isothermal titration calorimetry, PfeA R480A. The class given is binding. As to the method: as §1, §2

A further assay concerns the target T6, PfeA (Pseudomonas aeruginosa, UniProt Q05098).
T6 construct: His7 tag with TEV protease site (N, cleaved yes); made in house; host or cells: E. coli C43 (DE3)
In words: coelution on S200 size-exclusion column, PfeA wild-type. The assay is classed as binding. Here is the method:
Proteins were incubated with the Fe^3+-siderophore before being loaded on a S200 size-exclusion column.
Crystals of PfeA appeared at 20 °C after few days by mixing 2 μl of protein solution (10 mg.ml^−1) with 1 μl of reservoir solution containing 11% polyethylene glycol 8000, 0.05 M ADA pH 6.5 and 0.1 M magnesium acetate. Crystals were frozen with the same solution containing 25% ethylene glycol. Enterobactin structure complexes were obtained by soaking apo crystals for few hours with mother liquor containing 5 mM Fe^3+-enterobactin before cryoprotection. For the others complexes, crystals were cross-linked by diffusion of 25% glutaraldehyde prior the soaking. Co-crystallisation attempts have been performed by incubating the protein for 1 h at room temperature with the ligand before been loaded on a S200 16/60 column and concentrated for setting up the crystallisation plates. No crystals have been obtained by co-crystallisation. Crystallisation conditions of the mutants were the same as for the wild-type.
A general note: SEC sorts molecules by how far they enter the pores of the column.

For assay [2], the system named is ∆pfeA(pMMBpfeA) cells (native PfeA). Put plainly: 55Fe-enterobactin binding and uptake assay, ∆pfeA(pMMBpfeA). To be noted: for Comptage (dpm): replicate counts; for Comptage (dpm) / 55Fe incorporated, pmol/ml/DO600: Supplementary Fig 10, listed as 55Fe-enterobactin; for 55Fe incorporated, pmol/ml/DO600: replicates. The assay is classed as cell-based, Pseudomonas aeruginosa. Here is the method: (§3) Fig. 6 Effects of PfeA mutation in vivo. a Analysis of changes in the transcription of pfeA gene. PAO1 strain, its corresponding deletion mutant ∆pfeA and deletion mutants carrying the expression plasmid of PfeA wild-type (∆pfeA(pMMBpfeA) or the R480A-Q482A mutant (∆pfeA(pMMBpfeAR480AQ482A)) were grown in CAA medium supplemented with 10 µM enterobactin. The data were normalised relative to the reference gene uvrD, and are representative of three independent experiments performed in triplicate (n = 3). The results are given as a ratio between the values obtained for ∆pfeA, ∆pfeA(pMMBpfeA) and ∆pfeA(pMMBpfeAR480AQ482A) over those obtained for the PAO1 strain. b ^55Fe-enterobactin binding at the bacterial surface. Cells were grown as in panel a, and were incubated for 15 min with 200 µM CCCP before initiation of transport assays by the addition of 500 nM ^55Fe-enterobactin. After 30 min incubation, the radioactivity accumulated in the bacteria was counted. The results are expressed as pmol of ^55Fe-enterobactin bound per ml of cells at an OD600 of 1. The experiments have been repeated three times. c ^55Fe-enterobactin binding and uptake. Cells were grown as in panel a, and were incubated with or without 200 µM CCCP before initiation of transport assays by the addition of 500 nM ^55Fe-enterobactin. After 30 min incubations, the radioactivity accumulated in the bacteria was counted. The results are expressed as pmol of ^55Fe-enterobactin bound and transported per ml of cells at an OD600 of 1. The experiments have been repeated three times
(§4) The complex was prepared at ^55Fe concentrations of 50 μM, with a siderophore:iron (mol:mol) ratio of 20:1. P. aeruginosa strains were first grown overnight at 30 °C in LB broth, and were then washed, resuspended and cultured overnight at 30 °C in iron-deficient CAA medium (casamino acid medium, composition: 5 g.l^−1 low-iron CAA (Difco), 1.46 g.l^−1 K2HPO4 3H2O, 0.25 g.l^−1 MgSO4 7H2O) and in the presence of 10 µM enterobactin to induce the expression of PfeA. CAA is a highly iron-restricted medium with iron concentrations of 20 nM[59]. Afterwards bacteria were washed with 50 mM Tris-HCl pH 8.0, and diluted to an OD600 of 1. Cells solutions were divided in two, one batch being treated with 200 μM CCCP. This compound collapses the proton-motive force across the bacterial cell membranes, inhibiting TonB-dependent iron uptake. Binding and transport assays were initiated by adding 500 nM ^55Fe-enterobactin to the bacterial solutions treated or not with CCCP. After 30 min of incubations, cells were centrifuged, and the radioactivity associated to the bacteria was monitored in the cell pellets. For the cells treated with CCCP, the radioactivity in the cell pellets corresponds to the binding of ^55Fe-enterobactin to P. aeruginosa cell surface, since no uptake occurs. In the absence of CCCP, the radioactivity associated to the cells corresponds to ^55Fe-enterobactin binding to the cell surface and the uptake into the bacteria.

The test system of assay [3] is ∆pfeA(pMMBpfeAR480AQ482A) cells (double-mutant PfeA). Put plainly: 55Fe-enterobactin binding and uptake assay, ∆pfeA(pMMBpfeAR480AQ482A). The note with it: for 55Fe count, Comptage / 55Fe-enterobactin bound/taken up: replicates, Figure 6b-c, listed as 55Fe-enterobactin. The class given is cell-based, Pseudomonas aeruginosa. As to the method:
as §3, §4

Setting [4] is: cells not treated with CCCP, 500 nM ^55Fe-enterobactin, 30 min.
The mark [5] stands for this setting: ∆pfeA (pMMBpfeAR480AQ482A) + CCCP.
[6] abbreviates: ∆pfeA (pMMBpfeAR480AQ482A), no CCCP.

The text below walks through data of PMC6694100, “The complex of ferric-enterobactin with its transporter from Pseudomonas aeruginosa suggests a two-site model” (Nature Communications, 2019).

Several values for one entry are separate records, joined by “and”; a condition that tells them apart may be missing. Equal entries are not always repeated. Entries after “also recorded” stand apart in the source; their conditions may differ. Where two headings read alike, the source gives them in different places.

T4 sequence (Q05098 26-746 Q507A): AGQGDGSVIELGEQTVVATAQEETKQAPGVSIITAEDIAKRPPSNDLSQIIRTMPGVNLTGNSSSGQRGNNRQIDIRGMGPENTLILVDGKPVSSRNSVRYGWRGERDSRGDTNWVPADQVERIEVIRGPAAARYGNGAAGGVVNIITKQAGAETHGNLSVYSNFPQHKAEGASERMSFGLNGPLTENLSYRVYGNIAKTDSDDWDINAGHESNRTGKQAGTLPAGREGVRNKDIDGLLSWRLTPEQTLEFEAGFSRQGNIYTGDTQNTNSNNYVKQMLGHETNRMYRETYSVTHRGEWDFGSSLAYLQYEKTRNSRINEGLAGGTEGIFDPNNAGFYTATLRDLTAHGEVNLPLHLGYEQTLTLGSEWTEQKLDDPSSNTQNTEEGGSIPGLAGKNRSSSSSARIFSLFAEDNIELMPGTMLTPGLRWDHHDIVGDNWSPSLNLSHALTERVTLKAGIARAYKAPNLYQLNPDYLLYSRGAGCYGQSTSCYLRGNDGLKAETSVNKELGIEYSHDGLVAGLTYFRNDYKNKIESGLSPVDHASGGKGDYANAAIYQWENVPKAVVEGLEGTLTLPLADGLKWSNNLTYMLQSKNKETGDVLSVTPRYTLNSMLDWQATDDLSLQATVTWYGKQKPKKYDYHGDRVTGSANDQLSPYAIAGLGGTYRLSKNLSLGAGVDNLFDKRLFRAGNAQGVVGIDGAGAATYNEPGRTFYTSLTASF
T3 sequence (Q05098 26-746 R505A/Q507A): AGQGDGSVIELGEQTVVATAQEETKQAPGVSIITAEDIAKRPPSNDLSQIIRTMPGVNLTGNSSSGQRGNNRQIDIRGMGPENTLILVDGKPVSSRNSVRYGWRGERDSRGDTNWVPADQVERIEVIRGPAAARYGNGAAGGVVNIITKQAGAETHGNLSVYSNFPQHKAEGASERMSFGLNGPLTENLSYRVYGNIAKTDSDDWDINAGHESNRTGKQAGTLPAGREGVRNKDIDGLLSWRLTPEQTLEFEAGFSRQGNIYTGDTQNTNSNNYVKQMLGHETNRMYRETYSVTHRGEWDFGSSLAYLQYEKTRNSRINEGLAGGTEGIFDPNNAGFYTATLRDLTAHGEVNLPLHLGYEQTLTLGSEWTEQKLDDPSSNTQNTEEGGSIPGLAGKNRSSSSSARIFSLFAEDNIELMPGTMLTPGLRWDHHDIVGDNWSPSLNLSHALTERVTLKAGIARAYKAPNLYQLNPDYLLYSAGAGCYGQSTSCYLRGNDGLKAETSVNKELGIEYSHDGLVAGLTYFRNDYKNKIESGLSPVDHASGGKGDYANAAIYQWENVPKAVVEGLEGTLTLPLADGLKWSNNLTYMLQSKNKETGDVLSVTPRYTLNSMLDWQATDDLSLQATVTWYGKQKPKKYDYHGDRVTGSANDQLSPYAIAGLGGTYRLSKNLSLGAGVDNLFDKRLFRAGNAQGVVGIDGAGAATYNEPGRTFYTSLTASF
T1 sequence (Q05098 26-746): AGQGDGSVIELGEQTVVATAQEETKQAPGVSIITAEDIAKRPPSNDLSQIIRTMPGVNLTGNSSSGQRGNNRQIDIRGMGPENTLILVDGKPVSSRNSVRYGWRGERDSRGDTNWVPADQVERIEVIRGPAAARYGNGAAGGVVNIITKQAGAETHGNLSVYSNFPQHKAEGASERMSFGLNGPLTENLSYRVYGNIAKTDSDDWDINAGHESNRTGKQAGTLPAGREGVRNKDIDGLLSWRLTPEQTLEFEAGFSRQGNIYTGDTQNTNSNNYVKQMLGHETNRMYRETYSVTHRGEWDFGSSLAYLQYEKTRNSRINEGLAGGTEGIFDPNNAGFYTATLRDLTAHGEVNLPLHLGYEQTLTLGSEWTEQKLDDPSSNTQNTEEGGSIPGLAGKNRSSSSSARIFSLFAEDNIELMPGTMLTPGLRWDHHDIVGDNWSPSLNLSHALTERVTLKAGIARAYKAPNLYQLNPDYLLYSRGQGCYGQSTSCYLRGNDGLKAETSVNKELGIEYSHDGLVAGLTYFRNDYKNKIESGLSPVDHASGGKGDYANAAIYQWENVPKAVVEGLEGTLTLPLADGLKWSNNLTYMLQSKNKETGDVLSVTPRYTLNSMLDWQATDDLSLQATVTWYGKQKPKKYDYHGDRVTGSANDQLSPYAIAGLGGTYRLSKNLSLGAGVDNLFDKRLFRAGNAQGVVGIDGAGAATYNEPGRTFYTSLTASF
T2 sequence (Q05098 26-746 G349V): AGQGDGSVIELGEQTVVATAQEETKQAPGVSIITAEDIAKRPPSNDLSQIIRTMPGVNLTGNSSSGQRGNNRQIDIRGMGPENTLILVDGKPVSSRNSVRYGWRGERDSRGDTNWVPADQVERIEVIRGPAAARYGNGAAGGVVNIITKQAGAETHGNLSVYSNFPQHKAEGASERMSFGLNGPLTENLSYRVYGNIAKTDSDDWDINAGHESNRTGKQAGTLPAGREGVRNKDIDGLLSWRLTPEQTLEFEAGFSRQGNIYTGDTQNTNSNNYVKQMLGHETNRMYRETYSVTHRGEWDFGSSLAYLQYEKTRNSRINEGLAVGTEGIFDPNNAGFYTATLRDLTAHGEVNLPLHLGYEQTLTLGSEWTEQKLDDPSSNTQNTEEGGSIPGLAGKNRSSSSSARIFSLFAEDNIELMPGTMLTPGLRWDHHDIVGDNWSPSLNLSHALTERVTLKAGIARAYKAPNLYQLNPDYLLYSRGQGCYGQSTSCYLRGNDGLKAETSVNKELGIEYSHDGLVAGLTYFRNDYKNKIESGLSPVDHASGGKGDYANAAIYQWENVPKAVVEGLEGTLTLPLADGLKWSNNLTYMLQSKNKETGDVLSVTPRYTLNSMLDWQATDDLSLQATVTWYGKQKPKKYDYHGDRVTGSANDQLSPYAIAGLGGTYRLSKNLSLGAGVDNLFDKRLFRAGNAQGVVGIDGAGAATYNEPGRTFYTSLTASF
T6 sequence (Q05098 26-746): as the sequence (Q05098 26-746) above

In the case of `O=C(N[C@H]1COC(=O)[C@@H](NC(=O)c2cccc([O-])c2[O-])COC(=O)[C@@H](NC(=O)c2cccc([O-])c2[O-])COC1=O)c1cccc([O-])c1[O-].[Fe+3]` [Fe^3+-enterobactin], the Kd on PfeA wild-type (read-out: K1, reverse titration) was 95 nM; at PfeA wild-type (read-out: K2, reverse titration), 4500 nM. Also, the “binding by ITC” value on PfeA G324V mutant was “no binding was detected; also recorded: did not show any detectable binding”; in assay [1], “no binding was detected; also recorded: did not show any detectable binding”; at PfeA Q482A mutant, “biphasic isotherms, but with much reduced heat output and smaller K1 values; also recorded: weakened (but detectable) binding”; on PfeA R480A mutant, “typical low affinity-binding curve profile; also recorded: weakened (but detectable) binding”. Besides, on PfeA, the “coelution with protein on size-exclusion column” value is recorded as “coelute with PfeA”. In addition, the “^55Fe-siderophore binding at the bacterial surface” value in assay [2] (CCCP treated cells (200 µM), 500 nM ^55Fe-enterobactin, 30 min, compared with wild-type PAO1) was “much higher levels of binding”. In addition, the “^55Fe-enterobactin binding and uptake” value in assay [2] (setting [4]) was “less efficient”; in assay [3] (setting [4]) it was “inactive”. The “Comptage (dpm)” value was 9474 dpm and 9114 dpm and 9574 dpm in assay [2] (∆pfeA (pMMBpfeA) (no CCCP)); 6090 dpm and 6603 dpm and 5856 dpm in assay [2] (∆pfeA (pMMBpfeA) + CCCP). Besides, the “55Fe incorporated, pmol/ml/DO600” value is 121.551 pmol/ml/DO600 and 116.932 pmol/ml/DO600 and 122.834 pmol/ml/DO600 in assay [2] (∆pfeA (pMMBpfeA) (no CCCP)); 78.1342 pmol/ml/DO600 and 84.716 pmol/ml/DO600 and 75.132 pmol/ml/DO600 in assay [2] (∆pfeA (pMMBpfeA) + CCCP). The “55Fe count, Comptage” value in assay [3] (setting [5]) was 1611 dpm and 1344 dpm and 1594 dpm; in assay [3] (setting [6]) it was 2941 dpm and 2752 dpm and 2956 dpm. Also, the 55Fe-enterobactin bound/taken up in assay [3] (setting [5]) was 20.669 pmol/ml/DO600 and 17.2434 pmol/ml/DO600 and 20.4509 pmol/ml/DO600; in assay [3] (setting [6]) it was 37.7328 pmol/ml/DO600 and 35.3079 pmol/ml/DO600 and 37.9252 pmol/ml/DO600.
